In PubChem BioAssay AID1963981 (Molecular Pharmacology Branch, DTP, NCI, 2024):

Test system: 354836-022-R-J1-PDC multicell spheroid viability
Test: Anticancer human tumor 354836-022-R-J1-PDC patient-derived head and neck squamous cell carcinoma cell line growth inhibition [PI3K]
Conditions: for IC50: curve of first compound; for viability, T/C: stronger effect = lower value
From the text: Combinatorial screen of targeted agents with the PI3K inhibitors inavolisib, alpelisib, duvelisib, and copanlisib in multi-cell type tumor spheroids
A high-throughput screen of multi-cell type tumor spheroids was designed to identify active combinations of targeted small molecules and PI3K pathway inhibitors. Complex spheroids include a stromal component modeled by human endothelial cells (HUVEC) and fibroblasts modeled by human mesenchymal stem cells (MSCs). The concentration ranges selected for each drug and investigational agent were based upon clinically achievable concentrations if the clinical Cmax of the agent was known.
Compounds. The drugs and investigational agents: inavolisib (NSC800729), alpelisib (NSC765974), duvelisib (NSC772469), copanlisib (NSC816437), ipatasertib (NSC767898), afuresertib (NSC778305), talazoparib (NSC767125), sapanisertib (NSC764658), selumetinib (NSC741078), tovorafenib (DAY101, NSC766906), vemurafenib (NSC761431), ravoxertinib (NSC781343), sotorasib (NSC818433), MRTX1133 (NSC 836407), abemaciclib (NSC 768073), palbociclib (NSC758247), venetoclax (NSC 766270), SY5609 (NSC837396), enzalutamide (NSC755605), and darolutamide (NSC825331), were obtained from the National Cancer Institute (NCI) Developmental Therapeutics Program Chemical Repository. The FDA-approved anticancer drug set is available from the NCI Developmental Therapeutics Program. […] The stock solutions were prepared in dimethyl sulfoxide (DMSO, Sigma-Aldrich, St. Louis, MO, cat. D2650) at 800-fold the tested concentration and stored at -70 degrees C prior to their use. All drugs and investigational agents were tested over a range starting from a high concentration at or near the clinical Cmax and decreasing in half-log increments. If the clinical Cmax for an agent had not been determined, the highest concentration tested was 10 microM.
Cell Culture. All cells were maintained in an incubator at 37 degrees C and 5% CO2 with 95% humidity. The PDC lines were cultured according to standard operating procedures established by the NCI PDMR (https://pdmr.cancer.gov/sops/default.htm). All PDCs were thawed and cultured in Matrigel-coated flasks prepared with a working solution of 1X Ham's F-12 nutrient mix, without supplementation (Invitrogen, Waltham, MA, cat. 11765054), 100 U/mL penicillin-streptomycin (Invitrogen, cat. 15140122), and 2.5% Matrigel (Corning Inc., Corning, NY, cat. 354248) for the first three passages. The 354836-022-R-J1-PDC, 475296-252-R-J1-PDC, and 997726-040-R-J2-PDC lines were cultured in 6A media, which includes advanced DMEM/F-12 (Thermo Fisher Scientific, cat. 12634028), 10 mM HEPES (Thermo Fisher Scientific, cat. 15630080), 1X GlutaMAX supplement (Thermo Fisher Scientific, cat. 35050061), 0.1 mg/mL primocin (InvivoGen, San Diego, CA, cat. ant-pm-2), 10% defined fetal bovine serum, heat inactivated (HyClone Laboratories Inc., Logan, UT, cat. SH30070.03HI), 50% L-WRN conditioned media (ATCC, cat. CRL-3276), 1.25 mM N-Acetyl-L-cysteine (Sigma-Aldrich, cat. A9165), 10 mM nicotinamide (Sigma-Aldrich, cat. N0636), 1X B-27 supplement (Thermo Fisher Scientific, cat. 17504044), 1X N-2 supplement (Thermo Fisher Scientific, cat. 17502048), and 10 microM Y-27632 dihydrochloride (Tocris Bioscience, Bristol, United Kingdom, cat. 1254). The 624824-186-R-J2-PDC line was cultured in 6C/Colon 1B media, which includes all 6A media components plus 50 ng/mL human EGF recombinant protein (Thermo Fisher Scientific, cat. PHG0311). […]

[1] = second compound 0.00316 µM, first compound 0.0316 µM
[2] = second compound 0.00316 µM, first compound 0.1 µM
[3] = second compound 0.01 µM, first compound 0.0316 µM
[4] = second compound 0.01 µM, first compound 0.1 µM
[5] = second compound 0.0316 µM, first compound 0.0316 µM
[6] = second compound 0.0316 µM, first compound 0.1 µM
[7] = second compound 0.1 µM, first compound 0.0316 µM
[8] = second compound 0.1 µM, first compound 0.1 µM
[9] = second compound 0.316 µM, first compound 0.0316 µM
[10] = second compound 0.316 µM, first compound 0.1 µM
[11] = second compound 1 µM, first compound 0.0316 µM
[12] = second compound 1 µM, first compound 0.1 µM
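Also: spheroids exposed to agents for seven days before the viability read.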

CC(C)NCC(C(=O)N1CCN(c2ncnc3c2C(C)CC3O)CC1)c1ccc(Cl)cc1 (centres undefined) + CC(Nc1ccc2c(c1)OCCn1cc(N3C(=O)OCC3C(F)F)nc1-2)C(N)=O
IC50 (second compound 0.00316 µM): 242 nM | IC50 (second compound 0.01 µM): 328 nM | IC50 (second compound 0.0316 µM): 333 nM | IC50 (second compound 0.1 µM): 590 nM | IC50 (second compound 0.316 µM): 202 nM | IC50 (second compound 1 µM): 72.2 nM | viability, T/C [1]: 82.9% | viability, T/C [2]: 69.4% | viability, T/C (second compound 0.00316 µM, first compound 0.316 µM): 42.8% | viability, T/C (second compound 0.00316 µM, first compound 1 µM): 26.7% | viability, T/C (second compound 0.00316 µM, first compound 3.16 µM): 22.1% | viability, T/C (second compound 0.00316 µM, first compound 10 µM): 12.5% | viability, T/C [3]: 95.5% | viability, T/C [4]: 68.5% | viability, T/C (second compound 0.01 µM, first compound 0.316 µM): 58.2% | viability, T/C (second compound 0.01 µM, first compound 1 µM): 24.4% | viability, T/C (second compound 0.01 µM, first compound 3.16 µM): 22.3% | viability, T/C (second compound 0.01 µM, first compound 10 µM): 8.88% | viability, T/C [5]: 74.5% | viability, T/C [6]: 75% | viability, T/C (second compound 0.0316 µM, first compound 0.316 µM): 45.8% | viability, T/C (second compound 0.0316 µM, first compound 1 µM): 31.9% | viability, T/C (second compound 0.0316 µM, first compound 3.16 µM): 21.3% | viability, T/C (second compound 0.0316 µM, first compound 10 µM): 10.8% | viability, T/C [7]: 75.4% | viability, T/C [8]: 73.6% | viability, T/C (second compound 0.1 µM, first compound 0.316 µM): 68.5% | viability, T/C (second compound 0.1 µM, first compound 1 µM): 34.2% | viability, T/C (second compound 0.1 µM, first compound 3.16 µM): 18.6% | viability, T/C (second compound 0.1 µM, first compound 10 µM): 8.92% | viability, T/C [9]: 62.4% | viability, T/C [10]: 58.6% | viability, T/C (second compound 0.316 µM, first compound 0.316 µM): 44.7% | viability, T/C (second compound 0.316 µM, first compound 1 µM): 28.4% | viability, T/C (second compound 0.316 µM, first compound 3.16 µM): 16.2% | viability, T/C (second compound 0.316 µM, first compound 10 µM): 7.58% | viability, T/C [11]: 56.7% | viability, T/C [12]: 45.9% | viability, T/C (second compound 1 µM, first compound 0.316 µM): 38.9% | viability, T/C (second compound 1 µM, first compound 1 µM): 28% | viability, T/C (second compound 1 µM, first compound 3.16 µM): 15.8% | viability, T/C (second compound 1 µM, first compound 10 µM): 9.1%

Cn1ncnc1[C@H]1c2n[nH]c(=O)c3cc(F)cc(c23)N[C@@H]1c1ccc(F)cc1 + CC(Nc1ccc2c(c1)OCCn1cc(N3C(=O)OCC3C(F)F)nc1-2)C(N)=O
IC50 (second compound 0.00316 µM): > 100 nM | IC50 (second compound 0.01 µM): > 100 nM | IC50 (second compound 0.0316 µM): > 100 nM | IC50 (second compound 0.1 µM): > 100 nM | IC50 (second compound 0.316 µM): > 100 nM | IC50 (second compound 1 µM): > 100 nM | viability, T/C (second compound 0.00316 µM, first compound 0.000316 µM): 87.4% | viability, T/C (second compound 0.00316 µM, first compound 0.001 µM): 97.1% | viability, T/C (second compound 0.00316 µM, first compound 0.00316 µM): 91.6% | viability, T/C (second compound 0.00316 µM, first compound 0.01 µM): 101% | viability, T/C [1]: 120% | viability, T/C [2]: 89.8% | viability, T/C (second compound 0.01 µM, first compound 0.000316 µM): 88.4% | viability, T/C (second compound 0.01 µM, first compound 0.001 µM): 83.4% | viability, T/C (second compound 0.01 µM, first compound 0.00316 µM): 105% | viability, T/C (second compound 0.01 µM, first compound 0.01 µM): 92.6% | viability, T/C [3]: 88.3% | viability, T/C [4]: 84.3% | viability, T/C (second compound 0.0316 µM, first compound 0.000316 µM): 83% | viability, T/C (second compound 0.0316 µM, first compound 0.001 µM): 89.8% | viability, T/C (second compound 0.0316 µM, first compound 0.00316 µM): 95% | viability, T/C (second compound 0.0316 µM, first compound 0.01 µM): 111% | viability, T/C [5]: 101% | viability, T/C [6]: 75.5% | viability, T/C (second compound 0.1 µM, first compound 0.000316 µM): 87% | viability, T/C (second compound 0.1 µM, first compound 0.001 µM): 104% | viability, T/C (second compound 0.1 µM, first compound 0.00316 µM): 89.9% | viability, T/C (second compound 0.1 µM, first compound 0.01 µM): 89.1% | viability, T/C [7]: 97.8% | viability, T/C [8]: 70.3% | viability, T/C (second compound 0.316 µM, first compound 0.000316 µM): 69.1% | viability, T/C (second compound 0.316 µM, first compound 0.001 µM): 81.8% | viability, T/C (second compound 0.316 µM, first compound 0.00316 µM): 74.7% | viability, T/C (second compound 0.316 µM, first compound 0.01 µM): 72.6% | viability, T/C [9]: 78.8% | viability, T/C [10]: 60.4% | viability, T/C (second compound 1 µM, first compound 0.000316 µM): 58% | viability, T/C (second compound 1 µM, first compound 0.001 µM): 63% | viability, T/C (second compound 1 µM, first compound 0.00316 µM): 61.8% | viability, T/C (second compound 1 µM, first compound 0.01 µM): 56.8% | viability, T/C [11]: 71.9% | viability, T/C [12]: 53.4%
